Source: paper PMC11990670, “Exploring the Volatility, Phase Transitions, and Solubility Properties of Five Halogenated Benzaldehydes” (Molecules, 2025)
Marks after values point to notes of the source that are not given here.

Columns and labels:
[1] = Vapor pressures of crystalline and liquid phases, static method with capacitance diaphragm gauge; type: physicochemical
Description: A previously described and tested static apparatus was used to measure the vapor pressures of the condensed phases (both crystalline and liquid) of the five compounds studied. This installation employs MKS capacitance diaphragm absolute gauges, operating at self-regulated constant temperatures. Our lab is equipped with three pressure gauges. Gauge I, a Baratron 631A01TBEH (MKS instruments, Andover, MA, USA) (Tgauge = 423 K), measures pressures in the range of 0.5 to 1.3 × 10^2 Pa and operates within a temperature range of 253 to 413 K. Gauge II, the instrument used in this study, is a Baratron 631A11TBFP (MKS instruments, Andover, MA, USA) (Tgauge = 473 K), capable of measuring pressures from 0.5 to 1.3 × 10^3 Pa within a temperature range of 253 to 433 K and gauge III, a Baratron 631D02T8FP (MKS instruments, Andover, MA, USA) (Tgauge = 473 K), designed to measure pressures between 0.5 Pa and 2.6 × 10^2 Pa, also within a temperature range of 253 to 433 K. The temperatures of the samples were measured using a Pt100 platinum resistance thermometer, calibrated by comparison with a standard platinum resistance thermometer (SPRT: Tinsley Precision Instruments Ltd, London, England). To prevent vapor condensation, the tubing connecting the cell containing the condensed sample to the pressure gauge is maintained at a temperature higher than that of the sample but lower than that of the gauge. The uncertainty in temperature measurements is estimated to be u(T/K) = ±0.01, and the expanded uncertainties (0.95 confidence level, k = 2) in pressure measurements are given by the expression U(p/Pa) = 0.1 + 0.0050 (p/Pa) for the gauge used. Samples were thoroughly degassed before starting the vapor pressure measurements, ensuring consistent readings at specific temperatures and eliminating any residual volatile substances, including water.

[2] = pH of the saturated aqueous solutions; type: physicochemical; conditions: saturated aqueous solution of the solubility experiment
Method: The concentration was measured by absorbances at 260 nm for 4-chlorobenzaldehyde, 263 nm for 4-bromobenzaldehyde and 2,4-dichlorobenzaldehyde, 297 nm for 2,6-dichlorobenzaldehyde, and 306 nm for 2,3-dichlorobenzaldehyde, using a Cary-60 UV–vis (Agilent) spectrophotometer. X-ray diffraction (XRD) and differential scanning calorimetry of residual solids were used to identify the eventual phase transformations. The purified samples of each compound studied were used for all experimental determinations, including the solubility measurements. After reaching the equilibrium, the residual solid was dried and analyzed using both DSC and XRD. The melting properties obtained from DSC were compared with those of the original purified sample, following the same procedure for the XRD analysis. […] As an example, the supporting information includes two thermograms and two XRD patterns for 2,4-dichlorobenzaldehyde (Figures S1 and S2). […] Equation (4) was derived from Equation (5), which is widely applicable to the solubility of solids.(4) ΔhydrGm°/kJ·mol^−1=9.17−5.71·log10(Scr/mol·m^−3)−ΔcrgGm°/kJ·mol^−1 (5) S=p^°/RTexpΔcrgGm°+ΔhydrGm°/−RT
An excess amount of each compound was added to a known volume of water in triplicate. […] After stirring, the solid phase was allowed to settle for 2 h. The pH of the saturated solutions was measured using a Mettler Toledo (Greifensee, Switzerland) FiveEasy F20 pH Meter calibrated with standard aqueous solutions (pH 7.00 and 4.01 or 10.1). Those solutions were then filtered through a 0.22 μm syringe hydrophilic filter (13 mm, PTFE, Labfil, Zhejiang, China) and diluted to the required concentration. The concentration of the compounds, expressed in molarity, was measured by absorbances using a Cary-60 UV–vis spectrophotometer (Agilent Technologies, Santa Clara, CA, USA) at 298.15 K (single cell Peltier accessory, ±0.15 K). The results reported in Table 6 are averaged from at least three replicates. Calibration was performed using solutions of known concentrations of each substance in water. These solutions were prepared by adding a precise mass of the substance and a specific volume of the solvent to a flask, then mixing until the substance was fully dissolved. The absorbance of these solutions was measured, and calibration curves were created.

O=Cc1c(Cl)cccc1Cl [2,6-Dichlorobenzaldehyde]
vapor pressure p ([1]; crystalline phase, T = 292.72 K): 0.50 Pa
vapor pressure p ([1]; crystalline phase, T = 294.67 K): 0.63 Pa
vapor pressure p ([1]; crystalline phase, T = 296.72 K): 0.81 Pa
vapor pressure p ([1]; crystalline phase, T = 298.56 K): 1.00 Pa
vapor pressure p ([1]; crystalline phase, T = 300.60 K): 1.28 Pa
vapor pressure p ([1]; crystalline phase, T = 302.53 K): 1.58 Pa
vapor pressure p ([1]; crystalline phase, T = 304.58 K): 1.97 Pa
vapor pressure p ([1]; crystalline phase, T = 306.53 K): 2.49 Pa
vapor pressure p ([1]; crystalline phase, T = 308.53 K): 3.07 Pa
vapor pressure p ([1]; crystalline phase, T = 310.48 K): 3.74 Pa
vapor pressure p ([1]; crystalline phase, T = 312.49 K): 4.61 Pa
vapor pressure p ([1]; crystalline phase, T = 314.41 K): 5.68 Pa
vapor pressure p ([1]; crystalline phase, T = 316.45 K): 7.02 Pa
vapor pressure p ([1]; crystalline phase, T = 318.40 K): 8.62 Pa
vapor pressure p ([1]; crystalline phase, T = 320.45 K): 10.52 Pa
vapor pressure p ([1]; crystalline phase, T = 322.40 K): 12.77 Pa
vapor pressure p ([1]; crystalline phase, T = 324.42 K): 15.66 Pa
vapor pressure p ([1]; crystalline phase, T = 326.34 K): 18.87 Pa
vapor pressure p ([1]; crystalline phase, T = 328.34 K): 22.67 Pa
vapor pressure p ([1]; crystalline phase, T = 330.30 K): 27.33 Pa
vapor pressure p ([1]; crystalline phase, T = 332.29 K): 32.89 Pa
vapor pressure p ([1]; crystalline phase, T = 334.27 K): 39.51 Pa
vapor pressure p ([1]; crystalline phase, T = 336.23 K): 46.91 Pa
vapor pressure p ([1]; crystalline phase, T = 338.20 K): 56.28 Pa
vapor pressure p ([1]; liquid phase, T = 344.17 K): 91.46 Pa
vapor pressure p ([1]; liquid phase, T = 346.13 K): 103.7 Pa
vapor pressure p ([1]; liquid phase, T = 348.09 K): 118.4 Pa
vapor pressure p ([1]; liquid phase, T = 350.07 K): 133.6 Pa
vapor pressure p ([1]; liquid phase, T = 352.10 K): 151.3 Pa
vapor pressure p ([1]; liquid phase, T = 354.09 K): 168.0 Pa
vapor pressure p ([1]; liquid phase, T = 356.04 K): 190.2 Pa
vapor pressure p ([1]; liquid phase, T = 358.03 K): 212.4 Pa
vapor pressure p ([1]; liquid phase, T = 359.98 K): 239.9 Pa
vapor pressure p ([1]; liquid phase, T = 361.98 K): 266.2 Pa
vapor pressure p ([1]; liquid phase, T = 363.92 K): 297.7 Pa
vapor pressure p ([1]; liquid phase, T = 365.92 K): 333.0 Pa
vapor pressure p ([1]; liquid phase, T = 367.87 K): 372.6 Pa
vapor pressure p ([1]; liquid phase, T = 369.87 K): 415.4 Pa
vapor pressure p ([1]; liquid phase, T = 371.82 K): 456.8 Pa
vapor pressure p ([1]; liquid phase, T = 373.82 K): 506.8 Pa
vapor pressure p ([1]; liquid phase, T = 375.77 K): 559.6 Pa
vapor pressure p ([1]; liquid phase, T = 377.79 K): 620.3 Pa
vapor pressure p ([1]; liquid phase, T = 379.71 K): 682.3 Pa
vapor pressure p ([1]; liquid phase, T = 381.71 K): 755.4 Pa
vapor pressure p ([1]; liquid phase, T = 383.62 K): 827.1 Pa
vapor pressure p ([1]; supercooled liquid, T = 334.28 K): 48.38 ^d Pa
vapor pressure p ([1]; supercooled liquid, T = 335.87 K): 53.45 ^d Pa
vapor pressure p ([1]; supercooled liquid, T = 338.22 K): 62.48 ^d Pa
vapor pressure p ([1]; supercooled liquid, T = 340.16 K): 71.24 ^d Pa
vapor pressure p ([1]; supercooled liquid, T = 342.24 K): 81.73 ^d Pa
pH of the saturated solution [2]: 6.39

O=Cc1ccc(Br)cc1 [4-Bromobenzaldehyde]
vapor pressure p ([1]; crystalline phase, T = 283.09 K): 0.83 Pa
vapor pressure p ([1]; crystalline phase, T = 285.23 K): 1.07 Pa
vapor pressure p ([1]; crystalline phase, T = 287.05 K): 1.33 Pa
vapor pressure p ([1]; crystalline phase, T = 289.17 K): 1.71 Pa
vapor pressure p ([1]; crystalline phase, T = 291.17 K): 2.13 Pa
vapor pressure p ([1]; crystalline phase, T = 292.95 K): 2.63 Pa
vapor pressure p ([1]; crystalline phase, T = 295.00 K): 3.25 Pa
vapor pressure p ([1]; crystalline phase, T = 297.08 K): 4.12 Pa
vapor pressure p ([1]; crystalline phase, T = 298.95 K): 4.98 Pa
vapor pressure p ([1]; crystalline phase, T = 301.06 K): 6.27 Pa
vapor pressure p ([1]; crystalline phase, T = 302.93 K): 7.60 Pa
vapor pressure p ([1]; crystalline phase, T = 304.86 K): 9.21 Pa
vapor pressure p ([1]; crystalline phase, T = 306.87 K): 11.43 Pa
vapor pressure p ([1]; crystalline phase, T = 308.76 K): 13.82 Pa
vapor pressure p ([1]; crystalline phase, T = 310.84 K): 17.02 Pa
vapor pressure p ([1]; crystalline phase, T = 312.78 K): 20.28 Pa
vapor pressure p ([1]; crystalline phase, T = 314.77 K): 24.88 Pa
vapor pressure p ([1]; crystalline phase, T = 316.79 K): 29.92 Pa
vapor pressure p ([1]; crystalline phase, T = 318.78 K): 36.33 Pa
vapor pressure p ([1]; crystalline phase, T = 320.66 K): 43.34 Pa
vapor pressure p ([1]; crystalline phase, T = 322.62 K): 51.66 Pa
vapor pressure p ([1]; crystalline phase, T = 324.68 K): 61.49 Pa
vapor pressure p ([1]; liquid phase, T = 330.60 K): 103.9 Pa
vapor pressure p ([1]; liquid phase, T = 332.51 K): 117.8 Pa
vapor pressure p ([1]; liquid phase, T = 334.45 K): 131.9 Pa
vapor pressure p ([1]; liquid phase, T = 336.48 K): 148.9 Pa
vapor pressure p ([1]; liquid phase, T = 338.43 K): 168.4 Pa
vapor pressure p ([1]; liquid phase, T = 340.46 K): 189.9 Pa
vapor pressure p ([1]; liquid phase, T = 342.44 K): 213.5 Pa
vapor pressure p ([1]; liquid phase, T = 344.41 K): 240.4 Pa
vapor pressure p ([1]; liquid phase, T = 346.34 K): 266.7 Pa
vapor pressure p ([1]; liquid phase, T = 348.34 K): 300.1 Pa
vapor pressure p ([1]; liquid phase, T = 350.32 K): 333.2 Pa
vapor pressure p ([1]; liquid phase, T = 352.34 K): 375.3 Pa
vapor pressure p ([1]; liquid phase, T = 354.27 K): 418.5 Pa
vapor pressure p ([1]; liquid phase, T = 356.26 K): 463.6 Pa
vapor pressure p ([1]; liquid phase, T = 358.21 K): 513.4 Pa
vapor pressure p ([1]; liquid phase, T = 360.13 K): 573.1 Pa
vapor pressure p ([1]; liquid phase, T = 362.14 K): 628.6 Pa
vapor pressure p ([1]; liquid phase, T = 364.12 K): 701.8 Pa
vapor pressure p ([1]; liquid phase, T = 366.10 K): 775.8 Pa
vapor pressure p ([1]; liquid phase, T = 368.08 K): 860.4 Pa
vapor pressure p ([1]; liquid phase, T = 370.05 K): 946.6 Pa
vapor pressure p ([1]; liquid phase, T = 371.99 K): 1026 Pa
vapor pressure p ([1]; liquid phase, T = 373.98 K): 1147 Pa
vapor pressure p ([1]; supercooled liquid, T = 316.76 K): 39.76 ^d Pa
vapor pressure p ([1]; supercooled liquid, T = 318.77 K): 46.26 ^d Pa
vapor pressure p ([1]; supercooled liquid, T = 320.73 K): 53.22 ^d Pa
vapor pressure p ([1]; supercooled liquid, T = 322.70 K): 60.73 ^d Pa
vapor pressure p ([1]; supercooled liquid, T = 324.68 K): 69.79 ^d Pa
vapor pressure p ([1]; supercooled liquid, T = 326.64 K): 79.36 ^d Pa
vapor pressure p ([1]; supercooled liquid, T = 328.63 K): 90.64 ^d Pa
pH of the saturated solution [2]: 6.82
